Reference: patent publication US20160039825A1 (BIOGEN MA INC., priority 2013, published 2016)

biological target: T1, Human ATX protein (Homo sapiens, UniProt Q13822); test: Autotaxin (ATX) assay, FRET with FS-3 substrate; assay type: biochemical; settings: greater than 10 μM
T1 construct: made in house
Excerpt: ATX (Autotaxin) is a 125 KDa glycoprotein with lysophospholipase D (LPLD) activity that generates the bioactive lipid lysophosphatidic acid (LPA) from lysophosphatidylcholine (LPC). The ATX biochemical assay utilizes a FRET (fluorescence resonance energy transfer) technology platform. The fluorescence signal of FRET substrate FS-3 is quenched due to intra-molecular FRET of a fluorophore to a non-fluorescing quencher (Ferguson, C. G., et al., Org Lett. 2006 May 11; 8(10): 2023-2026, which is incorporated by reference in its entirety). ATX catalyzes the hydrolysis of the substrate which separates the dabsyl quencher from the fluorescein reporter, which becomes fluorescent. The reaction is monitored by a SpectraMax M5 (Molecular Devices, Sunnyvale, Calif.) with at excitation wavelength 485 nm and emission wavelength […].
Fatty acid free-BSA (Sigma A8806): 10 mg/mL in H2O, stored at 4° C.
2×ATX assay buffer: 100 mM Tris, 280 mM NaCl, 10 mM KCl, 2 mM CaCl2, 2 mM MgCl2, pH 7.4.
Human ATX protein: expressed and purified in house. Stored at −80° C.
Substrate FS-3 (Echelon, L-2000): 100 μg in 77.74 μL H2O (1 mM stock), stored at −20° C.
384-well flat bottom plates—Corning #3575.
Compound dilution—All compounds were provided at 10 mM in 100% DMSO. In the first well, 2 μL of 10 mM compound was added to 78 μL of DMSO (1:40 dilution). In subsequent wells 3-fold dilution (total 10 dilutions) were performed.
1×ATX assay buffer was made up with a final concentration of 1 mg/mL fatty acid free-BSA using 2×ATX assay buffer, 10 mg/ml fatty acid free-BSA and ddH2O.
ATX protein was diluted with 1×ATX assay buffer to a concentration of 1.32 μg/mL (1.32×). 38 μL was added per well to the assay plate. The final concentration of ATX in the reaction as 1.0 μg/mL.
2 μL per well of compounds was transferred to provide the desired concentration. The plate was centrifuged, then incubated at room temperature for 30 minutes on the shaker.
FS-3 was diluted with 1×ATX assay buffer to a concentration of FS-3 of 10 μM (5×). Then, 10 μL was added per well to the assay plate. The final concentration of FS-3 in the reaction was 2 μM. The plate was centrifuged. The plate was kept shaking at room temperature for 2 hours. Because FS-3 substrate is light sensitive, plates were kept covered and protected from light.
Fluorescence was measured using SpectraMax M5 (excitation at 485 nm/emission at 538 nm, top read).

SMILES	IC50 [nM]
COC(=O)C1CN(C(=O)OCc2cc(C(F)(F)F)cc(C(F)(F)F)c2)Cc2ccnn2C1 (stereo not drawn) [Example 406]	> 10000

same assay, conditions: upper bound bins (no greater than 100, 250 or 500 nM); FS-3 2 μM, ATX 1.0 μg/mL

SMILES	IC50 [nM]
O=C(NC1CCCC1)c1cc2n(n1)CCCN(C(=O)OCc1cc(Cl)cc(Cl)c1)C2 [Example 16, 3,5-Dichlorobenzyl 2-(cyclopentylcarbamoyl)-7,8-dihydro-4H-pyrazolo[1,5-a][1,4]diazepine-5(6H)-carboxylate]	≤ 100
CC(C)(C)OC(=O)N1C2CCC1CN(C(=O)c1cc3n(n1)CCN(C(=O)OCc1cc(C(F)(F)F)cc(C(F)(F)F)c1)C3)C2 [Example 470]	≤ 100
O=C(OCc1cc(Cl)cc(Cl)c1)N1CCCn2nc(C(=O)N3C4CCCC3CCC4)cc2C1 [Example 12, 3,5-Dichlorobenzyl 2-(9-azabicyclo[3.3.1]nonane-9-carbonyl)-7,8-dihydro-4H-pyrazolo[1,5-a][1,4]diazepine-5(6H)-carboxylate]	≤ 100
CN1CC2CN(C(=O)c3cc4n(n3)CCCN(C(=O)OCc3cc(Cl)cc(C(F)(F)F)c3)C4)CC2C1 (stereo not drawn) [Example 168]	≤ 100
Cc1cc(-c2cc3n(n2)CCCN(C(=O)OCc2cc(Cl)cc(C(F)(F)F)c2)C3)ccn1 [Example 370]	≤ 100
O=C(OCc1cc(Cl)cc(C(F)(F)F)c1)N1CCCn2nc(C(=O)N3C[C@@H]4C[C@H]3CN4)cc2C1 [Example 204]	≤ 100
O=C(OCc1cc(C(F)(F)F)cc(C(F)(F)F)c1)N1CCCn2nc(NC3CCCNC3)cc2C1 (stereo not drawn) [Example 317]	≤ 250
O=C(O)C1CC2CCCC(C1)N2C(=O)c1cc2n(n1)CCN(C(=O)OCc1cc(C(F)(F)F)cc(C(F)(F)F)c1)C2 (stereo not drawn) [Example 48, 9-(5-(((3,5-Bis(trifluoromethyl)benzyl)oxy)carbonyl)-4,5,6,7-tetrahydropyrazolo[1,5-a]pyrazine-2-carbonyl)-9-azabicyclo[3.3.1]nonane-3-carboxylic acid]	≤ 100
O=C(OCc1cc(C(F)(F)F)cc(C(F)(F)F)c1)N1CCCn2nc(S(=O)(=O)N3CCCCC3)cc2C1 [Example 304]	≤ 100
O=C(O)C1CC2CCC(C1)N2Cc1cc2n(n1)CCCN(C(=O)OCc1cc(C(F)(F)F)cc(C(F)(F)F)c1)C2 (stereo not drawn) [Example 296]	≤ 250
CC(C)C1CC(Nc2cc3n(n2)CCCN(C(=O)OCc2cc(C(F)(F)F)cc(C(F)(F)F)c2)C3)CCN1 (stereo not drawn) [Example 314]	≤ 100
O=C(OCc1cc(C(F)(F)F)cc(C(F)(F)F)c1)N1CCn2nc(C(=O)N3C4CCC3CNC4)cc2C1 [Example 426]	≤ 100
O=C(OCc1cc(Cl)cc(Cl)c1)N1CCn2cc(C(F)(F)F)nc2C1 [Example 131, 3,5-Dichlorobenzyl 2-(trifluoromethyl)-5,6-dihydroimidazo[1,2-a]pyrazine-7(8H)-carboxylate]	≤ 500
CN1C2CCC1CN(C(=O)c1cc3n(n1)CCCN(C(=O)OCc1cc(C(F)(F)F)cc(C(F)(F)F)c1)C3)C2 [Example 225]	≤ 100
O=C(OCc1cc(C(F)(F)F)cc(C(F)(F)F)c1)N1CCCn2nc(N3CCN4CCC[C@@H]4C3)cc2C1 [Example 347]	≤ 100
O=C(OCc1cc(C(F)(F)F)cc(C(F)(F)F)c1)N1CCCn2nc(C(=O)N3CCNCC34CC4)cc2C1 [Example 219]	≤ 100
CC1CN(CC(=O)c2cc3n(n2)CCCN(C(=O)OCc2cc(Cl)cc(C(F)(F)F)c2)C3)CCO1 (stereo not drawn) [Example 268]	≤ 100
CC(NC1=NCCN1)c1cc2n(n1)CCCN(C(=O)OCc1cc(Cl)cc(C(F)(F)F)c1)C2 (stereo not drawn) [Example 157, 3-chloro-5-(trifluoromethyl)benzyl 2-(1-((4,5-dihydro-1H-imidazol-2-yl)amino)ethyl)-7,8-dihydro-4H-pyrazolo[1,5-a][1,4]diazepine-5(6H)-carboxylate]	≤ 250
O=C(OCc1cc(C(F)(F)F)cc(C(F)(F)F)c1)N1CCCn2nc(N3CCCNCC3)cc2C1 [Example 342]	≤ 100
O=C(O)C1CC2CCCC(C1)N2C(=O)c1cc2n(n1)CCCN(C(=O)OCc1cccc(Cl)c1)C2 (stereo not drawn) [Example 57, 9-(5-((3-Chlorobenzyloxy)carbonyl)-5,6,7,8-tetrahydro-4H-pyrazolo[1,5-a][1,4]diazepine-2-carbonyl)-9-aza-bicyclo[3.3.1]nonane-3-carboxylic acid]	≤ 250
O=C(OCc1cc(Cl)cc(C(F)(F)F)c1)N1CCCn2nc(C(=O)N3CCNC4(CC4)C3)cc2C1 [Example 187]	≤ 100
CC(Nc1cc2n(n1)CCCN(C(=O)OCc1cc(C(F)(F)F)cc(C(F)(F)F)c1)C2)C(=O)O (stereo not drawn) [Example 361, 2-((5-(((3,5-bis(trifluoromethyl)benzyl)oxy)carbonyl)-5,6,7,8-tetra-hydro-4H-pyrazolo[1,5-a][1,4]diazepin-2-yl)amino)propanoic acid]	≤ 250
CNC(=O)c1cc2n(n1)CCCN(C(=O)OCc1cc(Cl)cc(Cl)c1)C2 [Example 27, 3,5-Dichlorobenzyl 2-(methylcarbamoyl)-7,8-dihydro-4H-pyrazolo[1,5-a][1,4]diazepine-5(6H)-carboxylate]	≤ 100
O=C(OCc1cc(C(F)(F)F)cc(C(F)(F)F)c1)N1CCCn2nc(CNC3COC3)cc2C1 [Example 511]	≤ 250
CC1(C)CN(c2cc3n(n2)CCCN(C(=O)OCc2cc(C(F)(F)F)cc(C(F)(F)F)c2)C3)CCN1 [Example 340]	≤ 100
O=C(O)C1CC2CCC(C1)N2C(=O)c1cc2n(n1)CCN(C(=O)CCc1cc(Cl)cc(Cl)c1)C2 (stereo not drawn) [Example 93, 8-(5-(3-(3,5-Dichlorophenyl)propanoyl)-4,5,6,7-tetrahydropyrazolo[1,5-a]pyrazine-2-carbonyl)-8-azabicyclo[3.2.1]octane-3-carboxylic acid]	≤ 500

Second part, the molecule after the results:

IC50 [nM]	SMILES
≤ 100	CCC1(CC)CNCCN1C(=O)c1cc2n(n1)CCCN(C(=O)OCc1cc(C(F)(F)F)cc(C(F)(F)F)c1)C2 [Example 241]
≤ 100	N#CC1CN(C(=O)c2cc3n(n2)CCCN(C(=O)OCc2cc(C(F)(F)F)cc(C(F)(F)F)c2)C3)CCN1 (stereo not drawn) [Example 246]
≤ 100	CN1CCC(c2cc3n(n2)CCCN(C(=O)OCc2cc(C(F)(F)F)cc(C(F)(F)F)c2)C3)CC1 [Example 372, 3,5-bis(trifluoromethyl)benzyl 2-(1-methylpiperidin-4-yl)-7,8-dihydro-4H-pyrazolo[1,5-a][1,4]diazepine-5(6H)-carboxylate]
≤ 100	CN(C)S(=O)(=O)c1cc2n(n1)CCCN(C(=O)OCc1cc(C(F)(F)F)cc(C(F)(F)F)c1)C2 [Example 302, 3,5-bis(trifluoromethyl)benzyl 2-(N,N-dimethylsulfamoyl)-7,8-dihydro-4H-pyrazolo[1,5-a][1,4]diazepine-5(6H)-carboxylate]
≤ 100	CON(C)C(=O)c1cc2n(n1)CCN(C(=O)OCc1cc(C(F)(F)F)cc(C(F)(F)F)c1)C2 [Example 400, 3,5-bis(trifluoromethyl)benzyl 2-(methoxy(methyl)carbamoyl)-6,7-dihydropyrazolo[1,5-a]pyrazine-5(4H)-carboxylate]
≤ 100	CC1CN(C(=O)OC(C)(C)C)CCN1C(=O)c1cc2n(n1)CCN(C(=O)OCc1cc(C(F)(F)F)cc(C(F)(F)F)c1)C2 (stereo not drawn) [Example 464]
≤ 100	CC(=O)Nc1cc2n(n1)CCCN(C(=O)OCc1cc(C(F)(F)F)cc(C(F)(F)F)c1)C2 [Example 337, 3,5-bis(trifluoromethyl)benzyl 2-acetamido-7,8-dihydro-4H-pyrazolo[1,5-a][1,4]diazepine-5(6H)-carboxylate]
≤ 100	CC1CN(C(=O)c2cc3n(n2)CCN(C(=O)OCc2cc(C(F)(F)F)cc(C(F)(F)F)c2)C3)CC(C)N1 (stereo not drawn) [Example 433]
≤ 250	CC(c1cc2n(n1)CCN(C(=O)OCc1cc(C(F)(F)F)cc(C(F)(F)F)c1)C2)N1CCC(C(=O)O)CC1 (stereo not drawn) [Example 456]
≤ 100	O=C(O)C1CN(C(=O)c2cc3n(n2)CCCN(C(=O)OCc2cc(C(F)(F)F)cc(C(F)(F)F)c2)C3)CCN1 (stereo not drawn) [Example 192]
≤ 100	CN1CCN(C(=O)c2cc3n(n2)CCN(C(=O)OCc2cc(C(F)(F)F)cc(C(F)(F)F)c2)C3)CC1 [Example 489]
≤ 100	CC(C)(C)OC(=O)N1CC=C(c2cc3n(n2)CCN(C(=O)OCc2cc(C(F)(F)F)cc(C(F)(F)F)c2)C3)CC1 [Example 497]
